Measured values from ChEMBL document CHEMBL4052716, “Discovery and development of a novel class of phenoxyacetyl amides as highly potent TRPM8 agonists for use as cooling agents” (Bioorg Med Chem Lett, 2017).
≈ marks a conversion by molar mass, not a printed value.

Molecular target: T1, Transient receptor potential cation channel subfamily M member 8 (Homo sapiens, UniProt Q7Z2W7)
Experiment: Potency index, ratio of WS-3 EC50 to compound EC50 for human TRPM8 receptor
Conditions: not given
Target sequence in this assay (Q7Z2W7 whole entry, looked up): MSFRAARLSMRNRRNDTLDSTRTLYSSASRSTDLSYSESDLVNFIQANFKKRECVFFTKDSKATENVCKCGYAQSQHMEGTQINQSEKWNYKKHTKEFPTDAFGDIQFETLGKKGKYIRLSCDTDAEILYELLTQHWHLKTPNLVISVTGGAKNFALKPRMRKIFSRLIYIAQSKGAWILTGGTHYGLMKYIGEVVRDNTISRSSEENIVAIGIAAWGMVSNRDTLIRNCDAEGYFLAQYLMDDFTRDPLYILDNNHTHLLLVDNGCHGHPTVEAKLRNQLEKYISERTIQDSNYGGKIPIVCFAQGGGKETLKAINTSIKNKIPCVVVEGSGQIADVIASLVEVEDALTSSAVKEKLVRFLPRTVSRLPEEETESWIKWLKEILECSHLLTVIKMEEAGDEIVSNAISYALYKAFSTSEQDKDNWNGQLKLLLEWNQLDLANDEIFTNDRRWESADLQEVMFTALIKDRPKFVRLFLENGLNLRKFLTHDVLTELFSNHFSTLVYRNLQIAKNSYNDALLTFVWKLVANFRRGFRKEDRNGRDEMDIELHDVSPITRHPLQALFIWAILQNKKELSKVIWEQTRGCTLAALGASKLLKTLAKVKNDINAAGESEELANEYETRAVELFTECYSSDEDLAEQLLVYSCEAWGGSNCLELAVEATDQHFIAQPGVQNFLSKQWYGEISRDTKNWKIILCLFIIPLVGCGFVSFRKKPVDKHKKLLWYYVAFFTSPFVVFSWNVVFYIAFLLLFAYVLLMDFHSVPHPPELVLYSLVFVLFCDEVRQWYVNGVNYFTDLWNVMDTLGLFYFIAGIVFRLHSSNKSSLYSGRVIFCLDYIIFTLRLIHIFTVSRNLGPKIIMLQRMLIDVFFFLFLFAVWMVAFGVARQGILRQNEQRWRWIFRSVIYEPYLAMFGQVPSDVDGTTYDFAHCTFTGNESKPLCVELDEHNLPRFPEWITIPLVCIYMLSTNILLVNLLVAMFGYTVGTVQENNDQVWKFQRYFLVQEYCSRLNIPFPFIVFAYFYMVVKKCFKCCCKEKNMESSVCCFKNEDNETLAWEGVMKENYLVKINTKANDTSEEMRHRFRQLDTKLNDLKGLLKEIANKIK

Compound	Ratio EC50
CCN(Cc1cccs1)C(=O)c1cc2cc(C)ccc2[nH]1	2
CCN(Cc1cccs1)C(=O)C(C)(C)Oc1ccc(C)cc1	0.3
CCN(Cc1cccs1)C(=O)C(C)Oc1ccc(C)cc1 (stereo not drawn)	4
CCN(Cc1cc[nH]c1)C(=O)COc1ccc(C)cc1	0.2
Cc1ccc(OCC(=O)N(Cc2cccs2)C(C)(C)C)cc1	0.4
Cc1ccc(OCC(=O)N(Cc2cccs2)c2ncccn2)cc1	1
CCN(Cc1ccccn1)C(=O)COc1ccc(C)cc1	0.2
CCN(Cc1cccs1)C(=O)c1cc2cc(C)ccc2s1	3
CCN(Cc1cccs1)C(=O)COc1ccc(C#N)cc1	2
COc1ccc(OCC(=O)N(Cc2cccs2)c2ccn[nH]2)cc1	1140
CCN(Cc1cncs1)C(=O)COc1ccc(C)cc1	4
Cc1ccc(OCC(=O)N(Cc2cccs2)CC(C)C)cc1	3
Cc1ccc(OCC(=O)NCc2cccs2)cc1	0.1
CCC(C)N(Cc1cccs1)C(=O)COc1ccc(C)cc1 (stereo not drawn)	2
CCCc1ccc(OCC(=O)N(CC)Cc2cccs2)cc1	3
Cc1ccc(OCC(=O)N(Cc2cccs2)C2COC2)cc1	0.3
Cc1ccc(OCC(=O)N(Cc2cccs2)c2cnn(C)c2)cc1	0.1
Cc1ccc(OCC(=O)N(CCO)Cc2cccs2)cc1	5
Cc1ccc(OCC(=O)N(O)Cc2cccs2)cc1	0.4

Next, values leading:

Ratio EC50	Compound
365	C=CCN(Cc1cccs1)C(=O)COc1ccc(C)cc1
18	CCN(Cc1ccc(C)s1)C(=O)COc1ccc(C)cc1
15	Cc1ccc(OCC(=O)N(C)Cc2cccs2)cc1
7680	CCN(Cc1cccs1)C(=O)COc1ccc2c(c1)CCC2
3820	Cc1ccc(OCC(=O)N(Cc2cccs2)c2cn[nH]c2)cc1
49	CCN(Cc1ccsc1)C(=O)COc1ccc(C)cc1
6830	CCN(Cc1cccs1)C(=O)/C=C/c1ccc2c(c1)OCO2
620	CCN(Cc1cccs1)C(=O)COc1ccc(C)cc1
25	Cc1ccc(OCC(=O)N(Cc2cccs2)c2ccccn2)cc1
7	CCN(Cc1cccs1)C(=O)COc1ccc2c(c1)CCCC2
> 1e+06	Cc1ccc2oc(C(=O)N(Cc3cccs3)c3ccn[nH]3)cc2c1
32	CCN(Cc1cccs1)C(=O)COc1ccc(OC)cc1
10700	Cc1ccc(OCC(=O)N(Cc2cccs2)c2c[nH]nc2C)cc1
180	CCN(Cc1cccs1)C(=O)COc1cc(C)ccc1O
149	CCCN(Cc1cccs1)C(=O)COc1ccc(C)cc1
2340	CCN(Cc1cccs1)C(=O)/C=C/c1ccc(C)cc1
6340	O=C(COc1ccc2c(c1)OCO2)N(Cc1cccs1)c1ccn[nH]1
197	Cc1ccc(OCC(=O)N(Cc2cccs2)c2ccccc2)cc1
14700	Cc1ccc(OCC(=O)N(Cc2cccs2)c2c(C)n[nH]c2C)cc1
9	CCN(Cc1ccco1)C(=O)COc1ccc(C)cc1
317	CON(Cc1cccs1)C(=O)COc1ccc(C)cc1
650	CCN(Cc1cccs1)C(=O)COc1ccc(C)cc1O
10	CCN(Cc1cccs1)C(=O)COc1ccc(F)cc1

Test system: Homo sapiens
Experiment: In vivo agonist activity at human TRPM8 in trained human subjects assessed as concentration required to deliver cooling sensation equivalent to 45 uM WS-3 by measuring cooling intensity
Format: functional
Conditions: not given

Compound	Activity
C=CCN(Cc1cccs1)C(=O)COc1ccc(C)cc1	5 µM
CCN(Cc1cccs1)C(=O)COc1ccc2c(c1)CCC2	3 µM
Cc1ccc(OCC(=O)N(Cc2cccs2)c2cn[nH]c2)cc1	>5 µM
CCN(Cc1ccsc1)C(=O)COc1ccc(C)cc1	5 µM
CCN(Cc1cccs1)C(=O)COc1ccc(C)cc1	5 µM
Cc1ccc(OCC(=O)N(Cc2cccs2)c2ccccn2)cc1	15 µM
COc1ccc(OCC(=O)N(Cc2cccs2)c2ccn[nH]2)cc1	5 µM
Cc1ccc2oc(C(=O)N(Cc3cccs3)c3ccn[nH]3)cc2c1	4 µM
CCN(Cc1cccs1)C(=O)COc1ccc(OC)cc1	15 µM
Cc1ccc(OCC(=O)N(Cc2cccs2)c2c[nH]nc2C)cc1	>5 µM
CCN(Cc1cccs1)C(=O)COc1cc(C)ccc1O	5 µM
CCCN(Cc1cccs1)C(=O)COc1ccc(C)cc1	>5 µM
CCN(Cc1cccs1)C(=O)/C=C/c1ccc(C)cc1	3 µM
Cc1ccc(OCC(=O)N(Cc2cccs2)c2ccccc2)cc1	15 µM
CCN(Cc1ccco1)C(=O)COc1ccc(C)cc1	15 µM
CCN(Cc1cccs1)C(=O)COc1ccc(C)cc1O	3 µM

Test system: not listed separately
Experiment: Thermodynamic solubility of the compound in pH 7.1 phosphoric buffer
Format: physicochemical
Conditions: read-out: Therm_solubility

solubility thermodynamic	Compound
85 µM (≈ 26.8 µg/mL)	CCN(Cc1cccs1)C(=O)COc1ccc2c(c1)CCC2
545 µM (≈ 158 µg/mL)	CCN(Cc1cccs1)C(=O)COc1ccc(C)cc1

Test system: not listed separately
Experiment: Permeability of the compound assessed as drug transport by PAMPA
Format: physicochemical
Conditions: not given

Drug transport	Compound
3%	CCN(Cc1cccs1)C(=O)COc1ccc2c(c1)CCC2
12%	CCN(Cc1cccs1)C(=O)COc1ccc(C)cc1

Molecular target: T1, Transient receptor potential cation channel subfamily M member 8
Experiment: Agonist activity at human TRPM8 expressed in HEK293 cells assessed as increase in intracellular calcium level after 15 mins by Fluo-3-AM dye-based fluorescence assay
Format: cell-based
Conditions: read-out: EC50
Target sequence in this assay (Q7Z2W7 whole entry): as the sequence (Q7Z2W7 whole entry, looked up) above

Compound	EC50
CCN(Cc1cccs1)C(=O)c1cc2cc(C)ccc2[nH]1	2000 nM
CCN(Cc1cccs1)C(=O)C(C)(C)Oc1ccc(C)cc1	11000 nM
CCN(Cc1cccs1)C(=O)C(C)Oc1ccc(C)cc1 (stereo not drawn)	889 nM
CCN(Cc1cc[nH]c1)C(=O)COc1ccc(C)cc1	21800 nM
Cc1ccc(OCC(=O)N(Cc2cccs2)C(C)(C)C)cc1	11000 nM
Cc1ccc(OCC(=O)N(Cc2cccs2)c2ncccn2)cc1	3700 nM
CCN(Cc1ccccn1)C(=O)COc1ccc(C)cc1	16000 nM
CCN(Cc1cccs1)C(=O)c1cc2cc(C)ccc2s1	1600 nM
CCN(Cc1cccs1)C(=O)COc1ccc(C#N)cc1	1990 nM
CCN(Cc1cncs1)C(=O)COc1ccc(C)cc1	1100 nM
Cc1ccc(OCC(=O)N(Cc2cccs2)CC(C)C)cc1	900 nM
Cc1ccc(OCC(=O)NCc2cccs2)cc1	25000 nM
CCC(C)N(Cc1cccs1)C(=O)COc1ccc(C)cc1 (stereo not drawn)	2000 nM
CCCc1ccc(OCC(=O)N(CC)Cc2cccs2)cc1	1810 nM
Cc1ccc(OCC(=O)N(Cc2cccs2)C2COC2)cc1	23000 nM
Cc1ccc(OCC(=O)N(Cc2cccs2)c2cnn(C)c2)cc1	63000 nM
Cc1ccc(OCC(=O)N(CCO)Cc2cccs2)cc1	900 nM
Cc1ccc(OCC(=O)N(O)Cc2cccs2)cc1	8000 nM

Next, values leading:

EC50	Compound
20 nM	C=CCN(Cc1cccs1)C(=O)COc1ccc(C)cc1
178 nM	CCN(Cc1ccc(C)s1)C(=O)COc1ccc(C)cc1
400 nM	Cc1ccc(OCC(=O)N(C)Cc2cccs2)cc1
0.8 nM	CCN(Cc1cccs1)C(=O)COc1ccc2c(c1)CCC2
1.4 nM	Cc1ccc(OCC(=O)N(Cc2cccs2)c2cn[nH]c2)cc1
88 nM	CCN(Cc1ccsc1)C(=O)COc1ccc(C)cc1
0.7 nM	CCN(Cc1cccs1)C(=O)/C=C/c1ccc2c(c1)OCO2
8 nM	CCN(Cc1cccs1)C(=O)COc1ccc(C)cc1
200 nM	Cc1ccc(OCC(=O)N(Cc2cccs2)c2ccccn2)cc1
689 nM	CCN(Cc1cccs1)C(=O)COc1ccc2c(c1)CCCC2
40 nM	Cc1ccc2oc(C(=O)N(Cc3cccs3)c3ccn[nH]3)cc2c1
120 nM	CCN(Cc1cccs1)C(=O)COc1ccc(OC)cc1
0.4 nM	Cc1ccc(OCC(=O)N(Cc2cccs2)c2c[nH]nc2C)cc1
24 nM	CCN(Cc1cccs1)C(=O)COc1cc(C)ccc1O
40 nM	CCCN(Cc1cccs1)C(=O)COc1ccc(C)cc1
2 nM	CCN(Cc1cccs1)C(=O)/C=C/c1ccc(C)cc1
0.6 nM	O=C(COc1ccc2c(c1)OCO2)N(Cc1cccs1)c1ccn[nH]1
23 nM	Cc1ccc(OCC(=O)N(Cc2cccs2)c2ccccc2)cc1
0.3 nM	Cc1ccc(OCC(=O)N(Cc2cccs2)c2c(C)n[nH]c2C)cc1
489 nM	CCN(Cc1ccco1)C(=O)COc1ccc(C)cc1
10 nM	CON(Cc1cccs1)C(=O)COc1ccc(C)cc1
8 nM	CCN(Cc1cccs1)C(=O)COc1ccc(C)cc1O
422 nM	CCN(Cc1cccs1)C(=O)COc1ccc(F)cc1
